Measurements published in patent US20250221405A1, “ROOT NODULE FORMATION-PROMOTING COMPOSITION, AND ROOT HAIR FORMATION-PROMOTING COMPOSITION” (KANEKA CORPORATION, priority 2022, published 2025).

Columns and labels:
soybeans (Fukuyutaka) [1] = test: Experimental Example 1: seed coating, number of root nodules; type: in vivo, soybean; settings: Table 1-1
Description: A solution of SF, SL, or RL dissolved in water (a composition for promoting root nodule formation) as the following amount in each of the following treatments was prepared. The seeds of soybeans (Fukuyutaka) were coated using the solution in an amount of 800 μL/100 g seed to obtain coated seeds.
(§1) A 9 cm poly pot was filled with culture soil and seeded with three coated seeds in each pot.
(§2) After seeding, the coated seeds were cultivated in a greenhouse set at 28° C. during the day (14h) and 18° C. at night (10h).
Seven days after the seeding, the soybeans in each pot were thinned to one plant, and each pot was irrigated with 4.3 ml of a mixture of rhizobium materials (rhizobium and azospirillum) mixed with water at a proportion of 10 g/L.
(§3) Twenty-one days after the irrigation, the roots were washed with water so as not to remove root nodules, the culture soil was removed, and then, the root nodules formed on the roots were collected.
After the seeding, each pot was fertilized with ½ Hoagland solution once a week. In addition, experiments were conducted on eight pots (eight plants) in each treatment.
(§4) A plurality of experiments were conducted by changing the type of the composition for promoting root nodule formation and the like. Tables 1-1 and 1-2 show the date of seeding, the date of irrigating, the date of investigating the number of root nodules, the amount of SF, SL, or RL in the composition for promoting root nodule formation, and the investigation result of the number of root nodules. Note that the number of root nodules is indicated by a relative value with Tl taken as 100, with a numerical value in parentheses indicating the average number of root nodules actually measured (pieces/plant).

soybeans (Fukuyutaka) [2] = test: Experimental Example 3: seed coating with biosurfactant and/or KVP, number of root nodules; type: in vivo, soybean; settings: Table 3-1
Description: A solution of SF, SL, or RL and/or KVP dissolved in water (a composition for promoting root nodule formation) as the following amount in each of the following treatments was prepared. The seeds of soybeans (Fukuyutaka) were coated using the solution in an amount of 800 μL/100 g seed to obtain coated seeds.
as §1, §2
Seven days after the seeding, the soybeans in each pot were thinned to one plant, and each pot was irrigated with 4.3 mL of a mixture of rhizobium materials (rhizobium and azospirillum) mixed with water at a proportion of 10 g/L.
as §3
(§5) After the seeding, each pot was fertilized with ½ Hoagland solution (50 mL) once a week. In addition, experiments were conducted on eight pots (eight plants) in each treatment.
A plurality of experiments were conducted by changing the type of the composition for promoting root nodule formation and the like. Tables 3-1 and 3-2 show the amounts of SF, SL, or RL and/or KVP in the composition for promoting root nodule formation and the investigation result of the number of root nodules. Note that the number of root nodules is indicated by a relative value with Tl taken as 100, with a numerical value in parentheses indicating the average number of root nodules actually measured (pieces/plant).

soybeans (Fukuyutaka) [3] = test: Experimental Example 4: soil irrigation with biosurfactant and/or KVP, root nodule number and weight, root weight; type: in vivo, soybean; settings: with rhizobium materials
Description: For each of the following treatments, to a mixture of rhizobium materials (rhizobium and azospirillum) mixed with water at a proportion of 10 g/L, SF, SL, or RL was added in the following amount to prepare a solution comprising the rhizobium materials and SF, SL, or RL (a composition for promoting root nodule formation).
A 9 cm poly pot was filled with sterilized fertilizer-free culture soil (Heiwa) and seeded three seeds of soybeans (Fukuyutaka) in each pot.
After seeding, the seeds were cultivated in a greenhouse set at 28° C. during the day (14h) and 18° C. at night (10h).
Seven days after the seeding, the soybeans in each pot were thinned to one plant, and each pot was irrigated with 4.3 ml of the composition for promoting root nodule formation (in the treatment T1, a mixture of rhizobium materials (rhizobium and azospirillum) mixed with water at a proportion of 10 g/L).
as §3, §5
as §4, with “4-1” for “1-1”, “4-2” for “1-2”, “nodules,” for “nodules, the amount of SF, SL, or RL in”, “(pieces/plant). In addition, fresh root nodule weight means the weight of root nodules before drying on the day of collection and is indicated by a relative value with Tl taken as 100. Dried underground part weight means the weight of roots dried for 48 hours at 80° C. and indicated by a relative value with Tl taken as 100.” for “(pieces/plant).”

[4] = test system: Japanese mustard spinach (Haru no Senbatsu); test: Experimental Example 6: SF in agar medium, microscopic observation of root hair; type: in vivo; design: key: those with a significant root hair increase observed were evaluated as AA; those with a root hair increase observed were evaluated as BB; those with no root hair increase observed were evaluated as CC; those with an overall or partial root hair decrease observed were evaluated as DD; settings: Table 10, eight days after seeding
Description: An observation tank (a composition for promoting root hair formation) formed by adding 1% SF aqueous solution to ½ MS agar medium (0.8% agar) so as to obtain the following dilution factor was prepared in an acrylic tank. Japanese mustard spinach (Haru no Senbatsu) was seeded near the surface of the observation tank.
After seeding, the Japanese mustard spinach was cultivated in an incubator set in a light period (6:00-18:00, temperature 26° C., illuminance 120 μmol/m^2·s) and a dark period (18:00-6:00, temperature 18° C.).
Eight days after the seeding, the amount of root hair at a point of 1 cm from the tip of the roots was observed under a microscope (microscopic observation). In the T1 (Control), ½ MS agar medium without mixing 1% SF aqueous solution in the medium was used as the observation tank.
As a result of the observation, compared with the T1, those with a significant root hair increase observed were evaluated as AA, those with a root hair increase observed were evaluated as BB, those with no root hair increase observed were evaluated as CC, and those with an overall or partial root hair decrease observed were evaluated as DD.
A plurality of experiments were conducted by changing the date of seeding, the date of observation, and the type of the composition for promoting root hair formation and the like. […]

[5] = seed coating 0.1 g/t seed (diluted 80000 times), 21 days after rhizobium irrigation
[6] = seed coating 1 g/t seed (diluted 8000 times)
[7] = seed coating 5 g/t seed (diluted 1600 times)
[8] = seed coating 10 g/t seed (diluted 800 times)
[9] = seed coating 25 g/t seed (diluted 320 times)
[10] = seed coating 50 g/t seed (diluted 160 times)
[11] = seed coating SF 0.5 g/t seed (diluted 16000 times)
[12] = seed coating SF 5 g/t seed (diluted 1600 times)
[13] = Table 4-1, single agent diluted 1000 times
[14] = Table 4-1, single agent diluted 5000 times
[15] = Table 4-1, single agent diluted 10000 times

surfactin Na [SF]
Number of Root Nodules, average number actually measured (soybeans (Fukuyutaka) [1]; [5]): 15.4 pieces/plant
Number of Root Nodules, relative value with T1 taken as 100 (soybeans (Fukuyutaka) [1]; [5]): 105
Number of Root Nodules, average number actually measured (soybeans (Fukuyutaka) [1]; [6]): 16.6 pieces/plant
Number of Root Nodules, relative value with T1 taken as 100 (soybeans (Fukuyutaka) [1]; [6]): 114
Number of Root Nodules, average number actually measured (soybeans (Fukuyutaka) [1]; [7]): 16.6 pieces/plant
Number of Root Nodules, relative value with T1 taken as 100 (soybeans (Fukuyutaka) [1]; [7]): 114
Number of Root Nodules, average number actually measured (soybeans (Fukuyutaka) [1]; [8]): 15.4 pieces/plant
Number of Root Nodules, relative value with T1 taken as 100 (soybeans (Fukuyutaka) [1]; [8]): 105
Number of Root Nodules, average number actually measured (soybeans (Fukuyutaka) [1]; [9]): 16.8 pieces/plant
Number of Root Nodules, relative value with T1 taken as 100 (soybeans (Fukuyutaka) [1]; [9]): 115
Number of Root Nodules, average number actually measured (soybeans (Fukuyutaka) [1]; [10]): 17.3 pieces/plant
Number of Root Nodules, relative value with T1 taken as 100 (soybeans (Fukuyutaka) [1]; [10]): 118
Number of Root Nodules, average number actually measured (soybeans (Fukuyutaka) [2]; [11]): 25.3 pieces/plant
Number of Root Nodules, relative value with T1 taken as 100 (soybeans (Fukuyutaka) [2]; [11]): 109
Number of Root Nodules, average number actually measured (soybeans (Fukuyutaka) [2]; [12]): 26.9 pieces/plant
Number of Root Nodules, relative value with T1 taken as 100 (soybeans (Fukuyutaka) [2]; [12]): 116
Dried Underground Part Weight, relative value with T1 taken as 100 (soybeans (Fukuyutaka) [3]; [13]): 101
Fresh Root Nodule Weight, relative value with T1 taken as 100 (soybeans (Fukuyutaka) [3]; [13]): 124
Number of Root Nodules, average number actually measured (soybeans (Fukuyutaka) [3]; [13]): 19.6 pieces/plant
Number of Root Nodules, relative value with T1 taken as 100 (soybeans (Fukuyutaka) [3]; [13]): 114
Dried Underground Part Weight, relative value with T1 taken as 100 (soybeans (Fukuyutaka) [3]; [14]): 103
Fresh Root Nodule Weight, relative value with T1 taken as 100 (soybeans (Fukuyutaka) [3]; [14]): 121
Number of Root Nodules, average number actually measured (soybeans (Fukuyutaka) [3]; [14]): 19.0 pieces/plant
Number of Root Nodules, relative value with T1 taken as 100 (soybeans (Fukuyutaka) [3]; [14]): 110
Dried Underground Part Weight, relative value with T1 taken as 100 (soybeans (Fukuyutaka) [3]; [15]): 99
Fresh Root Nodule Weight, relative value with T1 taken as 100 (soybeans (Fukuyutaka) [3]; [15]): 107
Number of Root Nodules, average number actually measured (soybeans (Fukuyutaka) [3]; [15]): 18.0 pieces/plant
Number of Root Nodules, relative value with T1 taken as 100 (soybeans (Fukuyutaka) [3]; [15]): 104
Observation Result (root hair) ([4]; agar medium with SF diluted 5000 times): AA
Observation Result (root hair) ([4]; agar medium with SF diluted 10000 times): BB
